Test results published in the NIST ThermoML archive (doi:10.1016/j.jct.2004.07.004).
Numbers after ± are expanded uncertainties.

Experiment: mn = molality of the nth substance listed, in mol/kg
Conditions: 100 kPa, Liquid

CC(C)C[C@H](NC(=O)[C@@H]1CCCN1)C(=O)O [proline-leucine] + O
mass density [kg/m3]
Conditions | 283.15 K | 288.15 K | 293.15 K | 298.15 K | 303.15 K | 308.15 K
m1 = 0.00191 | – | – | 998.299 ± 0.071 | – | – | 994.122 ± 0.073
m1 = 0.0025 | – | 999.209 ± 0.07 | 998.324 ± 0.071 | 997.166 ± 0.071 | – | 994.156 ± 0.073
m1 = 0.00255 | – | – | – | – | 995.771 ± 0.072 | –
m1 = 0.0035 | 999.851 ± 0.07 | 999.261 ± 0.07 | 998.368 ± 0.071 | 997.215 ± 0.071 | – | 994.198 ± 0.08
m1 = 0.00399 | – | 999.283 ± 0.07 | 998.394 ± 0.071 | – | – | –
m1 = 0.0045 | 999.901 ± 0.07 | 999.303 ± 0.07 | 998.416 ± 0.071 | 997.251 ± 0.071 | 995.856 ± 0.072 | 994.246 ± 0.073
m1 = 0.00505 | 999.956 ± 0.07 | 999.356 ± 0.07 | 998.452 ± 0.071 | – | – | 994.278 ± 0.073
m1 = 0.00549 | – | 999.353 ± 0.07 | 998.462 ± 0.071 | 997.3 ± 0.071 | 995.925 ± 0.072 | 994.294 ± 0.073
m1 = 0.00602 | 1000 ± 0.07 | 999.407 ± 0.07 | 998.502 ± 0.071 | 997.35 ± 0.071 | 995.943 ± 0.072 | 994.322 ± 0.073
m1 = 0.00649 | – | – | 998.533 ± 0.071 | 997.374 ± 0.071 | 995.96 ± 0.072 | 994.345 ± 0.073
m1 = 0.00709 | 1000.06 ± 0.07 | 999.445 ± 0.07 | 998.552 ± 0.07 | 997.381 ± 0.071 | – | –
m1 = 0.00748 | – | 999.48 ± 0.07 | 998.581 ± 0.071 | 997.416 ± 0.071 | 995.999 ± 0.072 | 994.392 ± 0.073
m1 = 0.00776 | 1000.09 ± 0.07 | – | – | – | – | –
m1 = 0.00833 | – | 999.516 ± 0.07 | 998.63 ± 0.07 | – | 996.05 ± 0.072 | 994.433 ± 0.073
m1 = 0.00849 | – | 999.544 ± 0.07 | 998.633 ± 0.07 | 997.468 ± 0.071 | 996.044 ± 0.073 | 994.436 ± 0.073
m1 = 0.00904 | 1000.16 ± 0.07 | 999.542 ± 0.07 | 998.644 ± 0.07 | – | – | –
m1 = 0.00949 | – | 999.594 ± 0.07 | 998.69 ± 0.07 | 997.521 ± 0.071 | 996.091 ± 0.072 | –
m1 = 0.01004 | – | 999.608 ± 0.07 | 998.704 ± 0.07 | 997.541 ± 0.071 | 996.128 ± 0.072 | 994.51 ± 0.073
m1 = 0.0105 | 1000.24 ± 0.07 | 999.641 ± 0.07 | 998.74 ± 0.07 | 997.562 ± 0.071 | 996.136 ± 0.072 | –
m1 = 0.01084 | 1000.25 ± 0.07 | 999.633 ± 0.07 | – | 997.57 ± 0.071 | – | 994.545 ± 0.073
m1 = 0.01148 | 1000.3 ± 0.07 | 999.691 ± 0.07 | 998.787 ± 0.07 | 997.614 ± 0.071 | 996.183 ± 0.072 | –
